Assay results: ChEMBL document CHEMBL1201862, “PubChem BioAssay data set” (2004)
Several values for one entry are separate records, joined by “and”; a condition that tells them apart may be missing. Equal entries are not always repeated. Activity calls are given as the source filed them.

Tests used:
Cytochrome P450 3A4 = Cytochrome P450 3A4 (Homo sapiens, UniProt P08684); details: Potency;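 note: confirmatory qHTS run detecting inhibitors and substrates of CYP3A4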
Cytochrome P450 2C9 = Cytochrome P450 2C9 (Homo sapiens, UniProt P11712); details: Potency
[1] = target: Lysosomal acid glucosylceramidase (Homo sapiens, UniProt P04062); test: Dose response cell-based high throughput screening assay to identify enhancers of beta-glucosidase activity. [Related pubchem assays: 784 ]; format: functional
[2] = HIV-1 Env-mediated cell fusion inhibitors, dose response, CCR5-tropic Env (AID 2279); format: functional
NS3 = NS3 (Hepatitis C virus, UniProt A3EZJ3); test: PubChem AID 2173; parameters: species or system Hepacivirus hominis
[3] = Vero cell cytotoxicity, dose response, cytotoxicity control for Vif-APOBEC3G degradation inhibitor project, Vero cells (AID 1117358); format: functional; details: Human immunodeficiency virus 1, Vero
[4] = target: T1, Dual specificity protein phosphatase 6 (Rattus norvegicus, UniProt Q64346)
T1 sequence (Q64346 whole entry): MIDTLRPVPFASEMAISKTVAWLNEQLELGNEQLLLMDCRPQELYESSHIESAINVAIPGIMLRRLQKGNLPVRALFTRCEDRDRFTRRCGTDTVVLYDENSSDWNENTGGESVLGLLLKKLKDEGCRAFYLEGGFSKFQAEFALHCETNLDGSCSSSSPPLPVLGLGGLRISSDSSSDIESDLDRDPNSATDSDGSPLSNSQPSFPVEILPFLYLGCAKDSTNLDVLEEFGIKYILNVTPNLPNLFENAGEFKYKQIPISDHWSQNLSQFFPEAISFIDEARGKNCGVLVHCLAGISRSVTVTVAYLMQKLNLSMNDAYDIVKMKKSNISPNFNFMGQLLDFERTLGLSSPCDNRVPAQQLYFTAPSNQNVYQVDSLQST

[5] = target: T2, Voltage-gated N-type calcium channel alpha-1B subunit/Amyloid beta A4 precursor protein-binding family A member 1 (Homo sapiens, UniProt Q00975+Q02410); format: protein assay
Estrogen receptor beta = Estrogen receptor beta (Homo sapiens, UniProt Q92731); test: ERβ–SRC-3 coactivator interaction inhibitors, confirmation, orthogonal assay, biochemical, ELISA, streptavidin-HRP readout (AID 1060)
Genome polyprotein = Genome polyprotein (Hepatitis C virus, UniProt Q2Q167); test: HCV core protein dimerization inhibitors, dose response, biochemical, TR-FRET (AID 2159); parameters: species or system Hepacivirus hominis;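 note: blocks dimerization of HCV core protein measured by TR-FRET between tagged core106 pairs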
[6] = target: T3, Tyrosine-protein phosphatase non-receptor type 22 (Homo sapiens, UniProt Q9Y2R2); format: functional
T3 sequence (Q9Y2R2 whole entry): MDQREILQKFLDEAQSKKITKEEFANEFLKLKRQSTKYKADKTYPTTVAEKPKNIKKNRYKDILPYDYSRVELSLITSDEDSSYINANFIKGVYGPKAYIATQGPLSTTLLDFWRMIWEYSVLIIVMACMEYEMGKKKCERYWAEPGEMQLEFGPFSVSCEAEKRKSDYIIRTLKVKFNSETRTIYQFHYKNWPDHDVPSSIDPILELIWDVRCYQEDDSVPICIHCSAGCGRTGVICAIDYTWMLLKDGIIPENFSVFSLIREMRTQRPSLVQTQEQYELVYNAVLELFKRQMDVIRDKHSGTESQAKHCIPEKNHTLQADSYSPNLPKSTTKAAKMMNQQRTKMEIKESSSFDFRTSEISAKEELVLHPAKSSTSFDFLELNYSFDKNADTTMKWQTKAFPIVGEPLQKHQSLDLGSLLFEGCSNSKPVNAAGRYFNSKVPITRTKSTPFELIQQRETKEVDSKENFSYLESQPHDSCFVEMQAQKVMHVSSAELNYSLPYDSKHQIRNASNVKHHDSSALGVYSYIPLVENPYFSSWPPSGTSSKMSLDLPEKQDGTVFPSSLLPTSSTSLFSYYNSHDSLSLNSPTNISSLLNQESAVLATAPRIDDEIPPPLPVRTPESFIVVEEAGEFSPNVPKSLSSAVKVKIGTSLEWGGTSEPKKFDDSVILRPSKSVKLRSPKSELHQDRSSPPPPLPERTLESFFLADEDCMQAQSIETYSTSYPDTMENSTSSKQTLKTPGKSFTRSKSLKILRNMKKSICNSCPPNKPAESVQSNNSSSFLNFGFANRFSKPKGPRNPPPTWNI

[7] = target: T2, Voltage-gated N-type calcium channel alpha-1B subunit/Amyloid beta A4 precursor protein-binding family A member 1; format: protein assay; remark: listed apart in the source
[8] = target: T4, Tyrosine-protein phosphatase non-receptor type 7 (Homo sapiens, UniProt P35236); format: functional
T4 sequence (P35236 whole entry): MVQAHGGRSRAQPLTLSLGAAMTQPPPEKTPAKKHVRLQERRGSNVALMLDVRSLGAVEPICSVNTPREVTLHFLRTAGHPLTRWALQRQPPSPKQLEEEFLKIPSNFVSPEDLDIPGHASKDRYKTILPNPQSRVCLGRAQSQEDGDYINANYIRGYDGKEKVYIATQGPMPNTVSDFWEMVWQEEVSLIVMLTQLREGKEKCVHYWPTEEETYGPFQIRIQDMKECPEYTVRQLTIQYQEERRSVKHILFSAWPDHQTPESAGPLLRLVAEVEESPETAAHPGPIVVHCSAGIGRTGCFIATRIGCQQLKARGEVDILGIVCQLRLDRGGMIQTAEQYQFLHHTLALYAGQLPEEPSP

[9] = target: Eukaryotic translation initiation factor 4E (Mus musculus, UniProt P63073); test: eIF4E–eIF4G protein interaction inhibitors, dose response, biochemical, TR-FRET (AID 855); format: functional;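 note: potency for disrupting eIF4E binding to eIF4GI seen as loss of FRET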
[10] = target: T1, Dual specificity protein phosphatase 6; format: functional
[11] = target: T1, Dual specificity protein phosphatase 6; test: MKP-3 phosphatase inhibitors, primary screen, biochemical, rat enzyme, in vitro (AID 425)
[12] = target: T4, Tyrosine-protein phosphatase non-receptor type 7; format: functional; remark: listed apart in the source
[13] = target: T3, Tyrosine-protein phosphatase non-receptor type 22; format: functional; remark: listed apart in the source
[14] = target: Glyceraldehyde-3-phosphate dehydrogenase (Homo sapiens, UniProt P04406)
[15] = target: Heat shock cognate 71 kDa protein (Homo sapiens, UniProt P11142); test: In Vitro Hsc70 Dose Response Fluorescence Polarization Assay. [Related pubchem assays: 1072 ]
[16] = target: Heat shock 70 kDa protein 1A (Homo sapiens, UniProt P0DMV8); test: Hsp70 inhibitors, SAR follow-up, biochemical, fluorescence polarization (AID 1072)
[17] = Vero E6 cell cytotoxicity, dose response, cytotoxicity control for non-replicating M. tuberculosis project, secondary assay (AID 492998); format: functional, VeroE6; details: Vero C1008
[18] = THP-1 cell cytotoxicity, dose response, cytotoxicity control for Vif-APOBEC3G degradation inhibitor project, THP-1 cells (AID 1117359); format: functional; details: Human immunodeficiency virus 1, THP-1
[19] = target: Serine/threonine-protein phosphatase PP1-alpha catalytic subunit (Homo sapiens, UniProt P62136); test: PP1 phosphatase inhibitors, dose response, biochemical, fluorescence (AID 2403);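 note: phosphatase turnover of OMFP into fluorescent 3-O-methylfluorescein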
[20] = inhibitors of Vif binding to APOBEC3G peptide, primary screen, biochemical, TR-FRET, GST-Vif 1-94, biotin-A3G peptide, dose response retest (AID 1117319); format: functional;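 note: TR-FRET signal of purified GST-Vif binding a biotinylated A3G peptide; inhibitors lower the FRET signal by blocking Vif and A3G binding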
SUMO-activating enzyme [21] = target: T5, SUMO-activating enzyme (Homo sapiens, UniProt Q9UBT2); test: SUMOylation inhibitor hit validation, confirmation, SUMOylation inhibitor project, biochemical, AlphaScreen (AID 2018); format: functional
[22] = target: Serine/threonine-protein phosphatase (Homo sapiens, UniProt Q9BPW0); test: Counterscreen for inhibitors of PP1: fluorescence-based biochemical high throughput dose response assay to identify inhibitors of Protein Phosphatase 5 (PP5). [Related pubchem assays: 2034 (Summary (PP5 inhibitors)), 1987 (PP5 inhibitors in singlate), 2235 (PP1 inhibitors in singlate)]
[23] = THP-1 cell cytotoxicity, dose response, cytotoxicity control for non-replicating M. tuberculosis project (AID 489025); format: functional
cells = format: functional
SUMO-activating enzyme [24] = target: T5, SUMO-activating enzyme; test: inhibitors of in vitro SUMOylation cascade, primary screen, biochemical, HTRF, uHTS (AID 2006); format: protein-complex assay
[25] = Luminescence Cell-Based Dose Response HTS to Identify Inhibitors of 5'UTR Stem-Loop Driven Prion Protein mRNA Translation in H4 Neuroglioblastoma Cells. [Related pubchem assays: 1827 (Project Summary), 1813 (Primary HTS)]; format: functional
[26] = target: T6, Alkaline phosphatase, tissue-nonspecific isozyme (Homo sapiens, UniProt P05186)
T6 sequence (P05186 whole entry): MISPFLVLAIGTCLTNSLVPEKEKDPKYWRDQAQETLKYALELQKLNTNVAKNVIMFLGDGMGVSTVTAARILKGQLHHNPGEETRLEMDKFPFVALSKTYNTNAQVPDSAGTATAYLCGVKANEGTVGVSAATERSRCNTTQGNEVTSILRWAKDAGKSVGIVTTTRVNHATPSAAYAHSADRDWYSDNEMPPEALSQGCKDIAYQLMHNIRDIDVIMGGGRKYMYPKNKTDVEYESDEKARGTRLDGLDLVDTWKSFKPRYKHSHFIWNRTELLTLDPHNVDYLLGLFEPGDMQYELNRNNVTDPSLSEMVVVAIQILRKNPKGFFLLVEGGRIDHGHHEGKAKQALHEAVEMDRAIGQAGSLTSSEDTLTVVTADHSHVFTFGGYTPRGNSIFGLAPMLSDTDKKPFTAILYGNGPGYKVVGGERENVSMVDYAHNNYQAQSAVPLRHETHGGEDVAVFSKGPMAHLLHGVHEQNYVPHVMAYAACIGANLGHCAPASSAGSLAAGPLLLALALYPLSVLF

Prothrombin = Prothrombin (Homo sapiens, UniProt P00734); test: Thrombin 1536 HTS Dose Response Confirmation. [Related pubchem assays: 1046 (Thrombin 1536 HTS; hits were confirmed in this assay)]; format: functional
[27] = inhibitors of SNCA 5'UTR-driven reporter translation, confirmation, H4 neuroglioma cells, luminescence (AID 1988); format: functional, cell-based
[28] = inhibitors of firefly luciferase expression or activity, dose response, H4 neuroglioma cells, luminescence (AID 1990); format: functional, cell-based
[29] = Counterscreen for IDE inhibitors: Luminescence-based cell-based high throughput dose response assay to identify compounds that are cytotoxic to HEK cells. [Related pubchem assays: 434962 (Primary screen (IDE inhibitors in singlicate)), 449730 (Counterscreen (Cytotoxicity in triplicate)), 435028 (Confirmation (IDE inhibitors in triplicate)) …; format: functional; details: HEK293
[30] = polyadenylation inhibitors in yeast reporter, dose response, luminescence, S. cerevisiae SKY197-pL101 (AID 2525); format: functional, cell-based
Staphylococcus aureus = test: Inhibitors of Bacterial Quorum Sensing Structure Activity Relationship (SAR) Analysis: Dose Response Assay. [Related pubchem assays: 700, 527 ]; format: functional, organism-based
[31] = target: T7, Eukaryotic translation initiation factor 2-alpha kinase 3 (Homo sapiens, UniProt Q9NZJ5); test: Dose response cell-based high-throughput screening assay to measure PERK inhibition. [Related pubchem assays: 1416 ]; format: functional
[32] = target: T7, Eukaryotic translation initiation factor 2-alpha kinase 3; test: Counterscreen assay for PERK inhibitors: Dose response cell-based high throughput screening assay to measure inhibition of PERK at 6 hours. [Related pubchem assays: 1522, 1416 ]; format: functional

T7 sequence (Q9NZJ5 whole entry): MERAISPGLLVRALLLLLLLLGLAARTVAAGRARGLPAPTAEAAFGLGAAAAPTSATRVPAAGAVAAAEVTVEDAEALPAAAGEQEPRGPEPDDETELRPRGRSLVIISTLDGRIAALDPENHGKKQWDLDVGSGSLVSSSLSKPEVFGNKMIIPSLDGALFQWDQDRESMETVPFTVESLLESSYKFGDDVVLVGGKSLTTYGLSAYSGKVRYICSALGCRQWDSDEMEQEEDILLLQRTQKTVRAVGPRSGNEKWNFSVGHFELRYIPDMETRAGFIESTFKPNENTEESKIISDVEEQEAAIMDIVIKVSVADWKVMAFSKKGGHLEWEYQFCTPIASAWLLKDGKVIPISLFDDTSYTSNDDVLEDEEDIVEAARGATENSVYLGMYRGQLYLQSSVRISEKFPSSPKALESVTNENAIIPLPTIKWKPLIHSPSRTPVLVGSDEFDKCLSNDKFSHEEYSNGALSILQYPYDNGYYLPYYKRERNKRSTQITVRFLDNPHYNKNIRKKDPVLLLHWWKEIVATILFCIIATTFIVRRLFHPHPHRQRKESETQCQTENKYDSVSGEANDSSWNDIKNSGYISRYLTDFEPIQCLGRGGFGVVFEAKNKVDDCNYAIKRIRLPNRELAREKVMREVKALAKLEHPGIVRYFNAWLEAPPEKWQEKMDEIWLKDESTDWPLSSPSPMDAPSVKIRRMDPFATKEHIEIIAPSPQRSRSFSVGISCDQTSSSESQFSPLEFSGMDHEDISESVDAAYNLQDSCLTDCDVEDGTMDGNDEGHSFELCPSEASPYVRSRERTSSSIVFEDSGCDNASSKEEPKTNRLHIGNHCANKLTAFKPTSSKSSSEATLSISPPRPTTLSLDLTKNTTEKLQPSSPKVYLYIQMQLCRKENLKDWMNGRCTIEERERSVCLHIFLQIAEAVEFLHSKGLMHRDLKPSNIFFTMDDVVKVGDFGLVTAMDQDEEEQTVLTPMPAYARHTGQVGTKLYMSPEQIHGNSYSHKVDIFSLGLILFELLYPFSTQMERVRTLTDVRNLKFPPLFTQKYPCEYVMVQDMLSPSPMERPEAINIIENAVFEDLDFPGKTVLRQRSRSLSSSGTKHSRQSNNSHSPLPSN
T5 sequence (Q9UBE0 whole entry): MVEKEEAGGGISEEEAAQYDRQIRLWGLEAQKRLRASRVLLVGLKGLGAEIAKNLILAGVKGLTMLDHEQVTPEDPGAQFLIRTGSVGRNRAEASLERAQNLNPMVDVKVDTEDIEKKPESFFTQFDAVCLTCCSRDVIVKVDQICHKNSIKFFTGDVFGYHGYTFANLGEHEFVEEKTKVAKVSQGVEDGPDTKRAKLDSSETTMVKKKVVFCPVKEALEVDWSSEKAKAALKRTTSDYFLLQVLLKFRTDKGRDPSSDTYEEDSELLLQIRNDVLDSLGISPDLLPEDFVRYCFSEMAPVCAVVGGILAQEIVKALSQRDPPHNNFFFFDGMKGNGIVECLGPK
T5 sequence (Q9UBT2 whole entry): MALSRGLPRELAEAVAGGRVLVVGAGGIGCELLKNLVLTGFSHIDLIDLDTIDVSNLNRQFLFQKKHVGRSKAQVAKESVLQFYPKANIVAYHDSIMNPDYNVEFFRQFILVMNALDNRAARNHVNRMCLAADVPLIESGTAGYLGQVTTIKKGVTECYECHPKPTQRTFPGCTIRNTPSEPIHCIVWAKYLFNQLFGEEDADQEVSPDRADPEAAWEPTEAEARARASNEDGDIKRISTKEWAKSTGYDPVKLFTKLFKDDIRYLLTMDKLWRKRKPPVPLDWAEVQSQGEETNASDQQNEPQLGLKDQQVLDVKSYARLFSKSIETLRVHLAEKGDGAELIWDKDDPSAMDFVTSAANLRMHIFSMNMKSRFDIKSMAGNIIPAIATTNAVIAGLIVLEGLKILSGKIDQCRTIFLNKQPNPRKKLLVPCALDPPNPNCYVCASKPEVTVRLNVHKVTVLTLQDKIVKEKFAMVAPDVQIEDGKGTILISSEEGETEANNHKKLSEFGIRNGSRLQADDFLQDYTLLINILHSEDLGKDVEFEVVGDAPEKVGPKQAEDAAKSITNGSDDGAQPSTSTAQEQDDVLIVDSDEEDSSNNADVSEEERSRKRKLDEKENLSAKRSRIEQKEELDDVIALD
Sequence of Genome polyprotein (Q2Q167 whole entry): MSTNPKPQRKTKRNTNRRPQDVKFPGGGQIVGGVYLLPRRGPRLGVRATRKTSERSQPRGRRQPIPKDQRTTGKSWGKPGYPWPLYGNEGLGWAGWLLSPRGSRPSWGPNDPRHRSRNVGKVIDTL
Sequence of NS3 (A3EZJ3 whole entry): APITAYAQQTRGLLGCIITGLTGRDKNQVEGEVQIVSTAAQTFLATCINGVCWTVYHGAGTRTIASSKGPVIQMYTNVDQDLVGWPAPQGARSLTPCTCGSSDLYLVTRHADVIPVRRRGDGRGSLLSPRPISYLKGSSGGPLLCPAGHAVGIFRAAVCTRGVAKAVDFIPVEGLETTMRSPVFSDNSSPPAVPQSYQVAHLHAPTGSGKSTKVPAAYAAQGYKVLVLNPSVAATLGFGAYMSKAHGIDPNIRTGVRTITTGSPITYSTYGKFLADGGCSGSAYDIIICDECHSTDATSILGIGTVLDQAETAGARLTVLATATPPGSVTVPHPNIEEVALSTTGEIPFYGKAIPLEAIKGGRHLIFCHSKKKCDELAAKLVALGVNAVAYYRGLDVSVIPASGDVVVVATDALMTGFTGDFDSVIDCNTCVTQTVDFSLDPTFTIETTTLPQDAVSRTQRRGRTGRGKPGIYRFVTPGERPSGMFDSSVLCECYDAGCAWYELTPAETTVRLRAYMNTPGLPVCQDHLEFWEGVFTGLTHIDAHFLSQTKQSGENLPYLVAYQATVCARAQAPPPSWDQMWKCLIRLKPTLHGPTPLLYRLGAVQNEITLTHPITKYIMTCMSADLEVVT
Sequence of Cytochrome P450 2C9 (P11712 whole entry): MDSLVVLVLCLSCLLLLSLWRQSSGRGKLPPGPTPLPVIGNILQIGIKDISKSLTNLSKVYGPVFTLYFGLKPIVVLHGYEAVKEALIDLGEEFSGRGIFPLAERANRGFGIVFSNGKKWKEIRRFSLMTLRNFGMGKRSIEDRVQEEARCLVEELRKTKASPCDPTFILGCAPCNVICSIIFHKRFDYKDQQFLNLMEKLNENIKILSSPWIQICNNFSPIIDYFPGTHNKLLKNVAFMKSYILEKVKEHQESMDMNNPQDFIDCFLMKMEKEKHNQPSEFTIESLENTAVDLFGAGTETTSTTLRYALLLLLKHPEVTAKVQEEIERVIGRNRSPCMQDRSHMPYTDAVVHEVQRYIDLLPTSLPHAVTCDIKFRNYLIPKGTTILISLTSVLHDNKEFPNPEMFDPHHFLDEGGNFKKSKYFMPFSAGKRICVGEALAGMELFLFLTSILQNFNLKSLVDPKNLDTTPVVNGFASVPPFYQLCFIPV
Sequence of Heat shock cognate 71 kDa protein (P11142 whole entry): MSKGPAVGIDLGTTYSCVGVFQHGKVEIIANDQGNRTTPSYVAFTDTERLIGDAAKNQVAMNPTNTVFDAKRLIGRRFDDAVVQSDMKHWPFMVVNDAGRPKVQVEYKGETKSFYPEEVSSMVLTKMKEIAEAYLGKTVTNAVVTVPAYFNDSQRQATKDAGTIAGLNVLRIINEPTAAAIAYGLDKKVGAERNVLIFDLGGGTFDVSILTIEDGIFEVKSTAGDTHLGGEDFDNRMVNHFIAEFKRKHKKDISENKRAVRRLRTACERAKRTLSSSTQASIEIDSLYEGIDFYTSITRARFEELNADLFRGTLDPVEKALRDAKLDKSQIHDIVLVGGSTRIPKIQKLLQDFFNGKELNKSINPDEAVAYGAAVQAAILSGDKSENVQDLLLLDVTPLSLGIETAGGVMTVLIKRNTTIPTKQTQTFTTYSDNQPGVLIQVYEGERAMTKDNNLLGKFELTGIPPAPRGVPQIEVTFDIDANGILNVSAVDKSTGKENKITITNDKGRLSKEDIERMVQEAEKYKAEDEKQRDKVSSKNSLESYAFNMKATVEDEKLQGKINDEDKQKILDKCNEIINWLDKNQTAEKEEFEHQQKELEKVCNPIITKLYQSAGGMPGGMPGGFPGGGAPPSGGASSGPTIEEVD
Sequence of Eukaryotic translation initiation factor 4E (P63073 whole entry): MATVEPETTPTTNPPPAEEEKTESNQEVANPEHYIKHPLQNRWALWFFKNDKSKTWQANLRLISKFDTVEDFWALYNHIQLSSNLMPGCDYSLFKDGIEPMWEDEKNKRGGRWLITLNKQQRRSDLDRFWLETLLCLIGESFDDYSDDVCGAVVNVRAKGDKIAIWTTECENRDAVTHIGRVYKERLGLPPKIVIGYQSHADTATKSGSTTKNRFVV
Sequence of Serine/threonine-protein phosphatase (Q9BPW0 whole entry): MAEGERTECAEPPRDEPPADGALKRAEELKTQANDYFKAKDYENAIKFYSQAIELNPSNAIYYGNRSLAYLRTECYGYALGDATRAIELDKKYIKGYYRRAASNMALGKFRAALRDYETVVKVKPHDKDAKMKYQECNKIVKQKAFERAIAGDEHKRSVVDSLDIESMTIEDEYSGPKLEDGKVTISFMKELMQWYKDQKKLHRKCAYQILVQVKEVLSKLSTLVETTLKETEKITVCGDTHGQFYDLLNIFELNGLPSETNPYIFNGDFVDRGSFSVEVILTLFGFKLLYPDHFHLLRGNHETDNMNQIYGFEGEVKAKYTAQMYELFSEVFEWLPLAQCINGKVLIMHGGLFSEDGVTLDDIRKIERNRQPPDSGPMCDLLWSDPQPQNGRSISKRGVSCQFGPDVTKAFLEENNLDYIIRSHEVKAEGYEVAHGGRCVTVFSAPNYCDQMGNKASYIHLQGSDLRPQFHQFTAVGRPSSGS

Structure (SMILES): CC1(C)CCC[C@@]2(C)[C@@H]1CC[C@]1(C)OC(=O)C[C@@H]21
- AC50 (Cytochrome P450 3A4): 20 µM (inconclusive)
- AC50 (Cytochrome P450 2C9): 39.8 µM (inconclusive)

Structure (SMILES): CCC(Sc1nc(C)cc(O)n1)C(=O)Nc1nc2c(s1)CCCC2 (stereo not given)
- EC50 [1]: > 50 µM (not active)

Structure (SMILES): O=C(O)C1Nc2c(O)cccc2C2C=CCC12 (stereo not given)
- IC50 [2]: 29.4 µM (active)
- IC50 (NS3): 3.43 µM (active)
- CC50 [3]: > 40 µM (active)
- IC50 [4]: 8.5 µM (active)
- IC50 [5]: 4.98 µM (active)
- IC50 (Estrogen receptor beta): > 50 µM (not active)
- IC50 (Genome polyprotein): > 49.8 µM (not active)
- IC50 [6]: 8.35 µM (active)
- IC50 [7]: 8.61 µM (active)
- IC50 [8]: 0.503 µM (active)
- IC50 [9]: 12.7 µM (active)
- IC50 [10]: 7.38 µM (active) and 14.6 µM (active)
- IC50 [11]: > 10 µM (not active)
- IC50 [12]: 11.2 µM (active)
- IC50 [13]: 6.84 µM (active)
- IC50 [14]: 47.7 µM (active)
- IC50 [15]: 62 µM (active)
- IC50 [16]: 9.87 µM (active)

Structure (SMILES): O=C1NC(=O)C(=Cc2ccc(-c3cc(Cl)ccc3Cl)[nH]2)C(=O)N1
- CC50 [17]: > 20 µM (active)
- CC50 [18]: > 40 µM (active)
- IC50 [19]: 5.6 µM (active)
- IC50 [20]: > 100 µM (active)
- IC50 (SUMO-activating enzyme [21]): 11.6 µM (active)
- IC50 [22]: > 67 µM (not active)
- CC50 [23]: 23.1 µM (active)
- IC50 (cells): < 0.1 µM (active)
- IC50 (SUMO-activating enzyme [24]): 16.4 µM (active)

Structure (SMILES): CCn1c(C)nc2cc(C(=O)N/N=C(\C)c3ccc(OC)cc3O)ccc21
- EC50 [25]: 11.2 µM (active)
- EC50 [26]: > 100 µM (not active)
- IC50 (Prothrombin): > 50 µM (not active)
- EC50 [27]: 9.16 µM (active)
- EC50 [28]: 12.8 µM (active)

Structure (SMILES): Oc1nc2ccccc2c(O)c1O
- IC50 [29]: 13.6 µM (not active)

Structure (SMILES): N#C/C(=C/c1ccc([N+](=O)[O-])o1)c1nc2ccccc2[nH]1
- EC50 [30]: 3.08 µM (active)

Structure (SMILES): CSCCC(NC(=O)c1ccccc1)C(=O)OCC(=O)Nc1sc2c(c1C#N)CCCC2 (stereo not given)
- IC50 (Staphylococcus aureus): 0.44 µM (active)

Structure (SMILES): COc1ccc(C(=O)NCC(=O)OC2CCCCC2=O)cc1 (stereo not given)
- EC50 [31]: > 55.7 µM (not active)
- EC50 [32]: > 55.7 µM (not active)
